From PubChem BioAssay (NCI)
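Exposure lasted 48 hours, with cells grown in 96-well plates and compounds tested at five concentrations. TGI denotes the concentration required for complete inhibition of growth.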

How the values were obtained:
Experiment in all cases: NCI-60 cell line screen, 48 h
HL-60(TB) leukemia = tested on: HL-60(TB) leukemia
MDA-MB-231 breast = tested on: MDA-MB-231 breast
UACC-257 melanoma = tested on: UACC-257 melanoma
CCRF-CEM leukemia = tested on: CCRF-CEM leukemia
MCF7 breast = tested on: MCF7 breast
SK-MEL-2 melanoma = tested on: SK-MEL-2 melanoma
HOP-62 NSCLC = tested on: HOP-62 NSCLC
M14 melanoma = tested on: M14 melanoma
HOP-92 NSCLC = tested on: HOP-92 NSCLC
ACHN renal = tested on: ACHN renal
786-0 renal = tested on: 786-0 renal
SK-MEL-28 melanoma = tested on: SK-MEL-28 melanoma
OVCAR-5 ovarian = tested on: OVCAR-5 ovarian
DU-145 prostate = tested on: DU-145 prostate
T-47D breast = tested on: T-47D breast
K-562 leukemia = tested on: K-562 leukemia
UACC-62 melanoma = tested on: UACC-62 melanoma
MDA-N = tested on: MDA-N
EKVX NSCLC = tested on: EKVX NSCLC
NCI-H522 lung = tested on: NCI-H522 lung

SMILES | TGI (HL-60(TB) leukemia) [µM] | TGI (MDA-MB-231 breast) [µM] | TGI (UACC-257 melanoma) [µM] | TGI (CCRF-CEM leukemia) [µM] | TGI (MCF7 breast) [µM] | TGI (SK-MEL-2 melanoma) [µM] | TGI (HOP-62 NSCLC) [µM] | TGI (M14 melanoma) [µM] | TGI (HOP-92 NSCLC) [µM] | TGI (ACHN renal) [µM] | TGI (786-0 renal) [µM] | TGI (SK-MEL-28 melanoma) [µM] | TGI (OVCAR-5 ovarian) [µM] | TGI (DU-145 prostate) [µM] | TGI (T-47D breast) [µM] | TGI (K-562 leukemia) [µM] | TGI (UACC-62 melanoma) [µM] | TGI (MDA-N) [µM] | TGI (EKVX NSCLC) [µM] | TGI (NCI-H522 lung) [µM]
Cc1c(N=Nc2ccc(Cl)cc2)c(-c2ccccc2)n(C2OC(CO)C(O)C(O)C2O)c(=S)c1C#N (stereo not given) | > 100 | 39.2 | 54 | 87.5 | 34.5 | 37.5 | 34.4 | 31.2 | 28.8 | 31.1 | 36.7 | 28.7 | 33.7 | 39.4 | 44.2 | 41.3 | 26.1 | 35.9 |  | 
CC(=O)c1c(C)n([O-])c2cc(Cl)c(Cl)cc2[n+]1=O | 39.6 | 62.7 | 57.4 | 61.5 | > 100 | > 100 | > 100 | > 100 |  | 67.7 | > 100 | > 100 | > 100 | > 100 | > 100 | 95.4 | 50 | > 100 | > 100 | 27.9
COC(=O)C1=C(O)C(C(=O)OC)[C@]2(O)[C@H](C(=O)OC)[C@H]1C[C@@H](c1ccc(C(F)(F)F)cc1)[C@H]2C(=O)OC (stereo not given in full) | 30.2 | > 100 | 23.5 |  | > 100 | 15.1 | > 100 | 29.4 | 34 | > 100 | 23.4 | 35.4 | 15 | 28.1 | > 100 | > 100 | 29 | 17.2 | 32.4 | 
Cn1cc(NC(=O)Nc2cc(C(=O)Nc3cc(C(=O)Nc4ccc(S(=O)(=O)O)c5cc(S(=O)(=O)O)ccc45)n(C)c3)n(C)c2)cc1C(=O)Nc1cc(C(=O)Nc2ccc(S(=O)(=O)O)c3cc(S(=O)(=O)O)ccc23)n(C)c1 | > 100 | > 100 | > 100 | > 100 | > 100 |  | > 100 | > 100 | > 100 | > 100 | > 100 | > 100 | > 100 | > 100 | > 100 | > 100 | > 100 | > 100 | > 100 | > 100
COC(=O)C(Cc1c[nH]c2ccccc12)NP(=O)(O)OCC1OC(n2cc(I)c(=O)[nH]c2=O)CC1O (stereo not given) | > 100 | > 100 | > 100 | > 100 | > 100 |  | > 100 | > 100 | > 100 | > 100 | > 100 | > 100 | > 100 | > 100 | > 100 | > 100 | > 100 | > 100 | > 100 | > 100
CCOC(=O)c1nnc2c(C(=O)OCC)c3ccccc3n2c1N | 5.52 | 87.8 | 11.1 |  | > 100 | > 100 | > 100 | > 100 |  | > 100 | > 100 | > 100 | > 100 | > 100 | > 100 | > 100 | 9.25 | > 100 | > 100 | > 100
CN1CCN(C(=S)N2CCN(C)CC2)CC1 | > 100 | > 100 | > 100 |  | > 37.3 | > 100 | > 100 | > 100 | > 100 | > 100 | > 100 | > 100 | > 100 | > 100 | > 100 | > 100 | > 100 | > 100 | > 100 | > 45.6
Nc1nc(SC/C=C/c2ccccc2)c2[nH]cnc2n1 | > 100 | > 100 | > 100 | > 100 | > 100 | > 100 | > 100 | > 100 |  | > 100 | > 100 | > 100 | > 100 | > 100 | > 100 | > 100 | > 100 | > 100 | > 100 | > 100
O=C1CCCC1CN1CCCC1 (stereo not given) | 3.02 | 31.3 | 30.9 | 1.16 | 8.53 | 18.5 | > 100 | 6.74 | 12.6 | 15 | 14.9 | 27.7 | 32.4 | > 66.4 | 10.8 | 1.18 | 32.6 | 26.8 | 42.8 | 
CSc1ncnc2c1ncn2CCC(=O)OC(C)(C)C | > 100 | > 100 | > 100 | > 100 | > 100 |  | > 100 | > 100 | > 100 | > 100 | > 100 | > 100 | > 100 | > 100 | > 100 | > 100 |  | > 100 | > 100 | > 100
O=C(O)[C@@H]1CCS(=O)(=O)N1 | > 100 | > 100 | > 100 | > 100 | > 100 | > 100 | > 100 | > 100 |  | > 100 | > 100 | > 100 | > 100 | > 100 | > 100 |  | > 100 | > 100 | > 100 | > 100
C[C@H](CCC(=O)O)[C@H]1CC[C@H]2[C@@H]3CC[C@@H]4C[C@H](O)CC[C@]4(C)[C@H]3C[C@H](O)[C@]12C | 67.1 | > 100 | > 100 | 63.8 | > 100 | > 100 | 78.6 | > 100 |  | > 100 | > 100 | > 100 | > 100 | > 100 | 91.2 | > 100 | > 100 | > 100 | > 100 | 86.7
CCOC(=O)NC(Nc1ccc(S(=O)(=O)Nc2nc(C)cc(C)n2)cc1)(C(=O)OCC)C(F)(F)F (stereo not given) | > 100 | > 100 |  | > 100 | > 100 | > 100 | > 100 | > 100 | > 100 | > 100 | > 100 | > 100 | > 100 | > 100 | > 100 | > 100 | > 100 | > 100 | > 100 | 
Nc1nc(N)c2c3c(cnc2n1)CC(c1ccccc1)CC3 (stereo not given) | 24.8 | 96.8 | > 100 |  | 30.4 | > 100 | 76.7 | > 100 |  | 31.7 | 24.3 | > 100 | > 100 | > 100 | 56.8 | > 100 | > 100 | > 100 | > 100 | 35.9
COC(CNC(=O)C(C)NC(=O)/C=C/c1ccccc1)OC (stereo not given) | > 100 | > 100 | > 100 | > 100 | > 100 | > 100 |  | > 100 | > 100 | > 100 | > 100 |  | > 100 | > 100 | > 100 | > 100 | > 100 | > 100 | > 100 | > 100
N#CCCN(C(=O)Nc1ccccc1)[C@H]1CCCC[C@@H]1N(C(=O)Nc1ccccc1)c1ccccc1 |  | > 100 | > 100 | > 100 | > 100 | > 100 | > 100 | > 100 | > 100 | > 100 | > 100 | > 100 | > 100 | > 100 | > 100 | > 100 | > 100 | > 100 | > 100 | > 100
N#Cc1c(-c2ccc(Cl)cc2Cl)nc2[nH][nH]c(=S)n2c1=O | > 100 | > 100 | > 100 | > 100 | > 100 | > 100 | > 100 | > 100 | > 100 | > 100 | > 100 | > 100 | > 100 | > 100 | > 100 |  | > 100 | > 100 | > 100 | > 100
CCCCNC(=S)Nc1nc(C(=O)NNC(=S)Nc2ccccc2)cs1 |  | 87.2 | > 100 | > 100 | > 100 | > 100 | > 100 | > 100 | 38.6 | > 100 | > 100 |  | > 100 | > 100 | > 100 |  | > 100 | > 100 | > 100 | 
COC(=O)c1cc2ccc(N)nc2[nH]c1=O |  | > 100 | > 100 |  | > 100 | > 100 | > 100 | > 100 | > 100 | > 100 | > 100 | > 100 | > 100 |  | > 100 |  |  | > 100 | > 100 | > 100
CC(C)C(=O)OCC1OC(n2c(Br)nc3c(=O)[nH]c(N)nc32)C(OC(=O)C(C)C)C1OC(=O)C(C)C (stereo not given) |  | > 100 | > 100 |  | > 100 | > 100 | > 100 | > 100 | > 100 | > 100 | 65.3 |  | > 100 | > 100 | > 100 |  | > 100 | > 100 | > 100 | > 100
COC(=O)C1=C(C(=O)NNc2ccccc2)N(c2cccnc2Cl)C(c2ccccc2)=CC1c1ccccc1 (stereo not given) | > 100 | > 100 | > 100 | > 100 | > 100 | 76.6 | > 100 | > 100 |  | > 100 | > 100 | > 100 | > 100 | > 100 | > 100 | > 100 | > 100 | 45.6 | > 100 | > 100
COC(=O)c1ccccc1/C=C1\Cc2ccc(C)c(C)c2C1=O | > 100 |  | > 100 | > 100 | > 100 | > 100 | > 100 | > 100 | 92.5 | > 100 | > 100 | > 100 | > 100 | > 100 | > 100 | > 100 | > 100 | > 100 | > 100 | > 100
COc1ccc(C(OCC2OC(n3cc(C)c(=O)[nH]c3=O)CC2n2cc(Cn3cc(Cl)c(=O)[nH]c3=O)nn2)(c2ccccc2)c2ccccc2)cc1 (stereo not given) | 6.99 | > 100 | > 100 |  | > 100 | > 100 | > 100 | > 100 | > 100 | > 100 | > 100 | > 100 | > 100 | > 100 | > 100 |  | > 100 | > 100 | > 100 | > 100
S=C(S)NCNC(=S)S.[Zn+2] | > 100 | > 100 | > 100 | > 100 | > 100 |  | > 100 | > 100 | > 100 | > 100 | > 100 | > 100 | > 100 | > 100 | > 100 | > 100 | > 100 | > 100 | > 100 | 
Cc1cc2oc(=N)c(C#N)c(C)c2cc1C | > 100 | > 100 | > 100 | > 100 | > 100 | > 100 | > 100 | > 100 | > 100 | > 100 | > 100 | > 100 | > 100 | > 100 | > 100 | > 100 | > 100 | > 100 | > 100 | 
